What was measured:
[1] = tested on: Tyrosine-protein kinase ABL1 (Homo sapiens), P00519 [Q252H]; conditions: Compound concentration 1000.0 nM
[2] = biological target: Mitogen-activated protein kinase kinase kinase 6 (Homo sapiens) (UniProt O95382); conditions: Compound concentration 1000.0 nM
[3] = biological target: T1, Calcium/calmodulin-dependent protein kinase type IV (Homo sapiens) (UniProt Q16566); conditions: Compound concentration 1000.0 nM
T1 sequence (whole entry): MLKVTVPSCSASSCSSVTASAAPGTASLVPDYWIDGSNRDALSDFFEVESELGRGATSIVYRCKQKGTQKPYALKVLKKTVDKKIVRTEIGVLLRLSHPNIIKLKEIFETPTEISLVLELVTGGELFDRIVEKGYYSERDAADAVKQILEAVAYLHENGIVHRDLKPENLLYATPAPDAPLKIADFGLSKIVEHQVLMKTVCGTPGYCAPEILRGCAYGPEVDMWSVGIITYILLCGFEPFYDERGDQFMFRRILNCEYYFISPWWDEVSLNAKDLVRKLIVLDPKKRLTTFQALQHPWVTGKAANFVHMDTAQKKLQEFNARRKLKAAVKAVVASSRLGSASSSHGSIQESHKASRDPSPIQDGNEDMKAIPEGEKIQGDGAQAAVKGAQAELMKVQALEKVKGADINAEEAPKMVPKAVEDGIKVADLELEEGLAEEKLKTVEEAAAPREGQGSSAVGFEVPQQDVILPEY

[4] = biological target: Cyclin-dependent kinase 4 (Homo sapiens) (UniProt P11802); conditions: Compound concentration 1000.0 nM
[5] = biological target: T2, Ephrin type-B receptor 2 (Homo sapiens) (UniProt P29323); conditions: Compound concentration 1000.0 nM
T2 sequence (whole entry): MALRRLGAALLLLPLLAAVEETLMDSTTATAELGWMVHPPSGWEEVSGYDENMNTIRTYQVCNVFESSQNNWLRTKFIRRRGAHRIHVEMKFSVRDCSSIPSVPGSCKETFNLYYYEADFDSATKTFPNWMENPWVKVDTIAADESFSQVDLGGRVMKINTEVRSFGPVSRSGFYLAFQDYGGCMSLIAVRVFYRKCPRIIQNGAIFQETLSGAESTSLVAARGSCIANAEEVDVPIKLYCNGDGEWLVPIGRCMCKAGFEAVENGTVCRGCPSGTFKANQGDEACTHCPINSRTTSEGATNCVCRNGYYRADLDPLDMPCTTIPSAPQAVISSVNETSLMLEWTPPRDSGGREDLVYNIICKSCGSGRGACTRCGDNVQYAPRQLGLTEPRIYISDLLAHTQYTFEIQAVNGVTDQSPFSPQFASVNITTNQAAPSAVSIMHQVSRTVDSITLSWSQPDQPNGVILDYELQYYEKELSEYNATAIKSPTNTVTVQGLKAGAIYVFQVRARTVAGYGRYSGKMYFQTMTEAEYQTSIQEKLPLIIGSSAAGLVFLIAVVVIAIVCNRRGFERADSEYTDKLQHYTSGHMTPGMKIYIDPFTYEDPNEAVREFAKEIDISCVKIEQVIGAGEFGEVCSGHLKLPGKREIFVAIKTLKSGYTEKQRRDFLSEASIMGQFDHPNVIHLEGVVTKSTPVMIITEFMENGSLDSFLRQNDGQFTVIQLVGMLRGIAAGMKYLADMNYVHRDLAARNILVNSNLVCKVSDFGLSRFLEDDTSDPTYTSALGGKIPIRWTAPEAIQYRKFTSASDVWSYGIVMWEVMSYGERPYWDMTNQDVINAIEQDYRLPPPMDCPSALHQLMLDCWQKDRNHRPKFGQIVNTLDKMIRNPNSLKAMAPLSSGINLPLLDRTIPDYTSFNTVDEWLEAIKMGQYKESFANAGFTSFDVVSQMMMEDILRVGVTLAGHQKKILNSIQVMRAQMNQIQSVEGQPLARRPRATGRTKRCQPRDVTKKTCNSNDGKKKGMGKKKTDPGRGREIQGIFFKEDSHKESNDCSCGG

[6] = biological target: Tyrosine-protein kinase Fgr (Homo sapiens) (UniProt P09769); conditions: Compound concentration 1000.0 nM
[7] = biological target: Receptor-type tyrosine-protein kinase FLT3 (Homo sapiens) (UniProt P36888); conditions: Compound concentration 1000.0 nM
[8] = biological target: G protein-coupled receptor kinase 4 (Homo sapiens) (UniProt P32298); conditions: Compound concentration 1000.0 nM
[9] = biological target: Phosphatidylinositol 4,5-bisphosphate 3-kinase catalytic subunit beta isoform (Homo sapiens) (UniProt P42338); conditions: Compound concentration 1000.0 nM
[10] = biological target: Phosphatidylinositol 5-phosphate 4-kinase type-2 beta (Homo sapiens) (UniProt P78356); conditions: Compound concentration 1000.0 nM
[11] = biological target: Serine/threonine-protein kinase PLK1 (Homo sapiens) (UniProt P53350); conditions: Compound concentration 1000.0 nM
[12] = biological target: T3, Serine/threonine-protein kinase Sgk3 (Homo sapiens) (UniProt Q96BR1); conditions: Compound concentration 1000.0 nM
T3 sequence (whole entry): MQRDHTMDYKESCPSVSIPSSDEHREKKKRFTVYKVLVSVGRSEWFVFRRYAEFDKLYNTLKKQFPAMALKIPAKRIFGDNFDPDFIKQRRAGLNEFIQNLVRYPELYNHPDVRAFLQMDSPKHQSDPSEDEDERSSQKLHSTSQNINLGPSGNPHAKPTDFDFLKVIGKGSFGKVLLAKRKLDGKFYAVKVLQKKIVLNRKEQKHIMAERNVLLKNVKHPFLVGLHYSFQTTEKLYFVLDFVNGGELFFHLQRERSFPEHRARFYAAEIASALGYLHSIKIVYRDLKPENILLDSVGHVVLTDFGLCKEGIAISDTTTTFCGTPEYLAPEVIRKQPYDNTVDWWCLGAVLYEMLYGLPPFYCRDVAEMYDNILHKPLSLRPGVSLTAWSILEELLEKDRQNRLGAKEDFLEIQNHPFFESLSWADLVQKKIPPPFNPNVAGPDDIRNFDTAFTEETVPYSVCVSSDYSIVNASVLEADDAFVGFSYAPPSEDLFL

[13] = biological target: TRAF2 and NCK-interacting protein kinase (Homo sapiens) (UniProt Q9UKE5); conditions: Compound concentration 1000.0 nM
[14] = biological target: BDNF/NT-3 growth factors receptor (Homo sapiens) (UniProt Q16620); conditions: Compound concentration 1000.0 nM
[15] = biological target: Delta-type opioid receptor (Homo sapiens) (UniProt P41143); conditions: Compound concentration 10.0 uM
[16] = biological target: Guanylate cyclase soluble subunit alpha-1 (Bos taurus) (UniProt P19687); experiment: GUACYCBASAL Cerep selectivity data (BI); conditions: Homo sapiens; Compound concentration 20.0 uM
[17] = biological target: ALK tyrosine kinase receptor (Homo sapiens) (UniProt Q9UM73); experiment: ALK Invitrogen selectivity data (BI); conditions: Compound concentration 3.0 uM

Chain of Serine/threonine-protein kinase PLK1 (Homo sapiens) (P53350 whole entry): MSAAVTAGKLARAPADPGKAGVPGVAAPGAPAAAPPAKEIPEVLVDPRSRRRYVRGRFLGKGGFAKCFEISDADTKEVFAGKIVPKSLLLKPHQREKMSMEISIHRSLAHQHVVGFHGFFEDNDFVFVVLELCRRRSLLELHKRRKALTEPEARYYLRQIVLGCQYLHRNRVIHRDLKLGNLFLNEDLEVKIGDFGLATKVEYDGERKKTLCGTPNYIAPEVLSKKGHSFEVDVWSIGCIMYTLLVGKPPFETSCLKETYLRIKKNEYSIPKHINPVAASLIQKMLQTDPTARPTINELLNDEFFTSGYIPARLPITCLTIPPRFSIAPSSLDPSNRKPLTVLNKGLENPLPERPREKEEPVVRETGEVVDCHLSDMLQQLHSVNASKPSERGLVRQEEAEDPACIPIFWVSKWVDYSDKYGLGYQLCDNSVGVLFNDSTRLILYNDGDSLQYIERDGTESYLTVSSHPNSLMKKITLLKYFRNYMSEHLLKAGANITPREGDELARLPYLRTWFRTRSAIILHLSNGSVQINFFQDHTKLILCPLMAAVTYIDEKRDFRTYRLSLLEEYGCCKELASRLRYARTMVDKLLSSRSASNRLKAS
Chain of Receptor-type tyrosine-protein kinase FLT3 (Homo sapiens) (P36888 whole entry): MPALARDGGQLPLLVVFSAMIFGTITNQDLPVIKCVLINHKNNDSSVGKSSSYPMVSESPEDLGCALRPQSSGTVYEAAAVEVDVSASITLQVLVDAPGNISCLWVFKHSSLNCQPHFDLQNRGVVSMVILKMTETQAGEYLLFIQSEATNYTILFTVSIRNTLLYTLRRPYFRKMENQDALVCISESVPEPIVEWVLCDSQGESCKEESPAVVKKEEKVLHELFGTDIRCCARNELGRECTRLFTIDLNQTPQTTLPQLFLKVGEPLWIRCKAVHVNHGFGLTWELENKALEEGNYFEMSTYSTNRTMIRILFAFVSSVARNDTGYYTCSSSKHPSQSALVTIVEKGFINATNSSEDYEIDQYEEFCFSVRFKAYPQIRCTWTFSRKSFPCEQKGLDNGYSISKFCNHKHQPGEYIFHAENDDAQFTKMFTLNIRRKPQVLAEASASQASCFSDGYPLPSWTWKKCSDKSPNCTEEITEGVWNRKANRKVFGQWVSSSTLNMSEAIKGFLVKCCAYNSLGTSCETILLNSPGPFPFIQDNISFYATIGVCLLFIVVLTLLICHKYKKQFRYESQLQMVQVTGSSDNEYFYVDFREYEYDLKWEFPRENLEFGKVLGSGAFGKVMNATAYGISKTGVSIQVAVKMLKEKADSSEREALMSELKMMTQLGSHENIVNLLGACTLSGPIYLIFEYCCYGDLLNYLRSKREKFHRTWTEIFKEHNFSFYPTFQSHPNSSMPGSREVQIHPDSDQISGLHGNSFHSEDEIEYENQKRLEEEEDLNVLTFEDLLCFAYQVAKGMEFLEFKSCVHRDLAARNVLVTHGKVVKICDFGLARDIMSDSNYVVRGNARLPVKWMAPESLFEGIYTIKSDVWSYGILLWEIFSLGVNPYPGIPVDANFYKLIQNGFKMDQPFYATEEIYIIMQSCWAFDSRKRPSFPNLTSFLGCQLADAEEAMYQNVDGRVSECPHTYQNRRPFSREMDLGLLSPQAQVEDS
Chain of Delta-type opioid receptor (Homo sapiens) (P41143 whole entry): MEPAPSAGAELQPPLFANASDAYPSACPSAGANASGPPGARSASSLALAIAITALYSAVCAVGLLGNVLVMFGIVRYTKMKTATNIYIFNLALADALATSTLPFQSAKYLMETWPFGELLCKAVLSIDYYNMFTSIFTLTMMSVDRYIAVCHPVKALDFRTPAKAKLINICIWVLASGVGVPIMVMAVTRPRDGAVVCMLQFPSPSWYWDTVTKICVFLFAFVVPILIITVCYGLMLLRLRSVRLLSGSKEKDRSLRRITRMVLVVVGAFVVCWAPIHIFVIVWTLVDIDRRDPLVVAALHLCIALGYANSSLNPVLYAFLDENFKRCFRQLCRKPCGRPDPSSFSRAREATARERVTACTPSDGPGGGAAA
Chain of BDNF/NT-3 growth factors receptor (Homo sapiens) (Q16620 32-822 limits assumed): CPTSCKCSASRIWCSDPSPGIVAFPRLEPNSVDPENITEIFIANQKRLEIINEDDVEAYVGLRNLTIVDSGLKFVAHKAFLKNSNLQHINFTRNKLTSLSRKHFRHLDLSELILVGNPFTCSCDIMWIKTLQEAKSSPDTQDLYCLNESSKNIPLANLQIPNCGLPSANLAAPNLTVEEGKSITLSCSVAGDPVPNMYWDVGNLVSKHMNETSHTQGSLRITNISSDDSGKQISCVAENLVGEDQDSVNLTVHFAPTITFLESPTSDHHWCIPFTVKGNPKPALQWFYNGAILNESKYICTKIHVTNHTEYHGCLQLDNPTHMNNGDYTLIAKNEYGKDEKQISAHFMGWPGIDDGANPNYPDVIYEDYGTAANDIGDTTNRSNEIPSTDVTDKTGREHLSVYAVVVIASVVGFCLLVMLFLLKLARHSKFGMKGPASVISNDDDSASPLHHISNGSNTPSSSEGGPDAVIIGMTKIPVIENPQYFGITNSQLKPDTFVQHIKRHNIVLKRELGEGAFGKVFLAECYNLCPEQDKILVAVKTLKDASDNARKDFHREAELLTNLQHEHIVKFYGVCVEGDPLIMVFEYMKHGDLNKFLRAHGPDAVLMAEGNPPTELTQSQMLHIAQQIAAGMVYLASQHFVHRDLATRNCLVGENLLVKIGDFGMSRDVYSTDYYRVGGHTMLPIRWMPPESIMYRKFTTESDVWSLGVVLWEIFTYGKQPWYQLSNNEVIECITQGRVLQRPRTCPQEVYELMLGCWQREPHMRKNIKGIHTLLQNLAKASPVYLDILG
Chain of TRAF2 and NCK-interacting protein kinase (Homo sapiens) (Q9UKE5 whole entry, looked up): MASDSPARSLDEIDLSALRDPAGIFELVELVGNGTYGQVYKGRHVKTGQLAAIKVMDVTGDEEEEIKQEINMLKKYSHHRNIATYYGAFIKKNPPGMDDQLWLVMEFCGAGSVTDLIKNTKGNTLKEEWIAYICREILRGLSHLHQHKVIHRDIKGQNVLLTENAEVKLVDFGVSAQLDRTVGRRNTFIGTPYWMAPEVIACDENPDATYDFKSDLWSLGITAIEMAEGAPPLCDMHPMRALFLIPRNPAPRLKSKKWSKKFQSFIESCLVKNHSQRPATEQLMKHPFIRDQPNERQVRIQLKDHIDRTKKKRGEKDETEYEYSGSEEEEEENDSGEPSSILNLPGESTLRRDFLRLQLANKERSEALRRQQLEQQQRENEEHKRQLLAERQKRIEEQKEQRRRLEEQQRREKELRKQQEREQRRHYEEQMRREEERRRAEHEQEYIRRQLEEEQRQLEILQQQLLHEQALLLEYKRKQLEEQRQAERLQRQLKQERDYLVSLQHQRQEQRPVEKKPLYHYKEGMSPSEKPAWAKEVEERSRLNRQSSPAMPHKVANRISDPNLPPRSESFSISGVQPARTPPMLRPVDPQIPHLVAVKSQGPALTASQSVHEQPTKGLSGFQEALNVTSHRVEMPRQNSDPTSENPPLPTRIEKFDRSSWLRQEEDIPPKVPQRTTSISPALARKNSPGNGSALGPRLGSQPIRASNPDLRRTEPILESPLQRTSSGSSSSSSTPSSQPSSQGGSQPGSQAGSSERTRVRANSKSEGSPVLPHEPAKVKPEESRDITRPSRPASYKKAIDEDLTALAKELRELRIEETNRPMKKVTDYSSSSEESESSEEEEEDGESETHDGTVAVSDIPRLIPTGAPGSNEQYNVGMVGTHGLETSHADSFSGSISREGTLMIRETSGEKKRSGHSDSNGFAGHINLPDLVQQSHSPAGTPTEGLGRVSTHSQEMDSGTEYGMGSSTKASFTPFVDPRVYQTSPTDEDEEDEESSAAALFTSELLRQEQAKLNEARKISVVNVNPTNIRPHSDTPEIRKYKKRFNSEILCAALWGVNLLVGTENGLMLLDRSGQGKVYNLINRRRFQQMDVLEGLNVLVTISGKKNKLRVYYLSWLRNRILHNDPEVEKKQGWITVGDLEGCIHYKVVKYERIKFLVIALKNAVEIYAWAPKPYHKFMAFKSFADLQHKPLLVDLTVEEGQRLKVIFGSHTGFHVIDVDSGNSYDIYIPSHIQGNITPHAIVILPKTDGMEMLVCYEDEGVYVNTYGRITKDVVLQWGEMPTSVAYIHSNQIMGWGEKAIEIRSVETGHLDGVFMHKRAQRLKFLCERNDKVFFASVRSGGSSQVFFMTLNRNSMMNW
Chain of G protein-coupled receptor kinase 4 (Homo sapiens) (P32298 whole entry, looked up, canonical isoform): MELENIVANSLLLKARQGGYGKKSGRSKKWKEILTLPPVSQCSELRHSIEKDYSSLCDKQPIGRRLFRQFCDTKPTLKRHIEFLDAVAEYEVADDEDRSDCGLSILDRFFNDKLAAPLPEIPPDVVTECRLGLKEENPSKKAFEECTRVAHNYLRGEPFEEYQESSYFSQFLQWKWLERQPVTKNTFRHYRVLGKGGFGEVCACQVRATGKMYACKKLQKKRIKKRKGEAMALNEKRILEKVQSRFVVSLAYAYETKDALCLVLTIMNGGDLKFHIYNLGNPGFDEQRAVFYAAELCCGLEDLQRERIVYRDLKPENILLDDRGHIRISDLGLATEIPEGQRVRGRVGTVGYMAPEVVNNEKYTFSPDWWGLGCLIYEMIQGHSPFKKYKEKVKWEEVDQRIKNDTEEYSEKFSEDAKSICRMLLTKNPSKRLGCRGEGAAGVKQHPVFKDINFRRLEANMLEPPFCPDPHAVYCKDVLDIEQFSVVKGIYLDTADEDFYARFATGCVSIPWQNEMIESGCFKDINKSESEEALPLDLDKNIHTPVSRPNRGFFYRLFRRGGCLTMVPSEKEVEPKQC
Chain of Cyclin-dependent kinase 4 (Homo sapiens) (P11802 whole entry): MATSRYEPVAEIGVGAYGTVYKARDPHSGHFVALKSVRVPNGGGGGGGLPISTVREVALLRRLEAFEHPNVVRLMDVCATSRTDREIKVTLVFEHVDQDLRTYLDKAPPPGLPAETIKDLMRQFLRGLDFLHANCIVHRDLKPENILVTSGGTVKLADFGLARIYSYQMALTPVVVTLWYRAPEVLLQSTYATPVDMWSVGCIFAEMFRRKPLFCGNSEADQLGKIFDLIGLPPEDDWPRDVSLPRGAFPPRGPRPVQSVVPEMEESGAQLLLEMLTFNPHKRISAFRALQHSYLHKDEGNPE

CN(C)C(=O)Cn1cc(-c2nc(C3(c4ccc(-c5cnc(N)nc5)cc4)CC3)no2)cn1 [BI 0153]
residual activity [1]: 100% | residual activity [2]: 78% | residual activity [3]: 100% | residual activity [4]: 44% | residual activity [5]: 70% | residual activity [6]: 100% | residual activity [7]: 90% | residual activity [8]: 100% | residual activity [9]: 96% | residual activity [10]: 71% | residual activity [11]: 82% | residual activity [12]: 75% | residual activity [13]: 100% | residual activity [14]: 100% | inhibition [15]: -5.53%

CN(C)C(=O)Cn1cc(-c2nc([C@@](C)(c3ccc(-c4cnc(N)nc4)cc3)C3CC3)no2)cn1 [BI 665915]
residual activity [16]: 95% | residual activity [17]: 97% | residual activity [1]: 83% | residual activity [2]: 90% | residual activity [3]: 83% | residual activity [4]: 94% | residual activity [5]: 87% | residual activity [6]: 100% | residual activity [7]: 97% | residual activity [8]: 86% | residual activity [9]: 100% | residual activity [10]: 100% | residual activity [11]: 77% | residual activity [12]: 76% | residual activity [13]: 100% | residual activity [14]: 81% | inhibition [15]: -7.13%
